Experimental data reported in paper PMC9597875 (Frontiers in Pharmacology, 2022).

Tests used:
CYP2C8 = target: T1, CYP2C8 (Homo sapiens, UniProt P10632); assay: CYP2C8 activity inhibition assay in human liver microsomes (paclitaxel hydroxylation, LC-MS/MS); details: for IC50: IC50 CYP2C8, HLM, paclitaxel 5 µM
T1 sequence (P10632 1-490): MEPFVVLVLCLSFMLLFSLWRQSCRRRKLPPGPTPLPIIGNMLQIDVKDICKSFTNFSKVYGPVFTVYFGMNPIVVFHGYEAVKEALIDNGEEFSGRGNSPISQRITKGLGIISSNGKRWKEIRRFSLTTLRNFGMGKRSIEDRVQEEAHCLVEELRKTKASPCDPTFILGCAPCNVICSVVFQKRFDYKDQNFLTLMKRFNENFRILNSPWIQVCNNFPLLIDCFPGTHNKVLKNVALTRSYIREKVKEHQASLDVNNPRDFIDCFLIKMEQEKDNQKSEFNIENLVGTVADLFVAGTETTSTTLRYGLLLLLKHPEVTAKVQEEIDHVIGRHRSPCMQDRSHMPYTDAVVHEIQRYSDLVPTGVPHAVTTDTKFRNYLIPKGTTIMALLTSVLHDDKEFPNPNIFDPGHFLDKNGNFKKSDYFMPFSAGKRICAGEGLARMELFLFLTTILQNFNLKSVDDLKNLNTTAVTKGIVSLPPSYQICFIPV

CYP2D6 [1] = target: T2, CYP2D6 (Homo sapiens, UniProt P10635); details: HLM; as compared to quinidine
T2 sequence (P10635 whole entry): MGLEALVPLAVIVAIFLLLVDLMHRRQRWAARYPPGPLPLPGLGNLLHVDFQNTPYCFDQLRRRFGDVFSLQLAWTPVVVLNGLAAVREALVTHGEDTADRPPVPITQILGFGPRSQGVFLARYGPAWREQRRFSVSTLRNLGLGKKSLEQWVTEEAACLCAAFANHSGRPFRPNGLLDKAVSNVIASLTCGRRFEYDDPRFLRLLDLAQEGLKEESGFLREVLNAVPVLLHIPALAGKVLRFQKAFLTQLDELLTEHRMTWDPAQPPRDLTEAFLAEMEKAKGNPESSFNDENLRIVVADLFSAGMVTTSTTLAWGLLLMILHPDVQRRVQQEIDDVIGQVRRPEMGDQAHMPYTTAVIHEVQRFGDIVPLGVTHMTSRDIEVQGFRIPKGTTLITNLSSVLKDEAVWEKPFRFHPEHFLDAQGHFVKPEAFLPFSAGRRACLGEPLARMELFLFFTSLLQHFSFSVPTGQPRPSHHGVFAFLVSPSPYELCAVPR

CYP2D6 [2] = target: T2, CYP2D6; assay: biochemical
CYP3A4 = CYP3A4 (Homo sapiens, UniProt P08684); assay: CYP3A4 activity inhibition assay in human liver microsomes (testosterone 6β-hydroxylation, LC-MS/MS)
Chain of CYP3A4 (P08684 whole entry): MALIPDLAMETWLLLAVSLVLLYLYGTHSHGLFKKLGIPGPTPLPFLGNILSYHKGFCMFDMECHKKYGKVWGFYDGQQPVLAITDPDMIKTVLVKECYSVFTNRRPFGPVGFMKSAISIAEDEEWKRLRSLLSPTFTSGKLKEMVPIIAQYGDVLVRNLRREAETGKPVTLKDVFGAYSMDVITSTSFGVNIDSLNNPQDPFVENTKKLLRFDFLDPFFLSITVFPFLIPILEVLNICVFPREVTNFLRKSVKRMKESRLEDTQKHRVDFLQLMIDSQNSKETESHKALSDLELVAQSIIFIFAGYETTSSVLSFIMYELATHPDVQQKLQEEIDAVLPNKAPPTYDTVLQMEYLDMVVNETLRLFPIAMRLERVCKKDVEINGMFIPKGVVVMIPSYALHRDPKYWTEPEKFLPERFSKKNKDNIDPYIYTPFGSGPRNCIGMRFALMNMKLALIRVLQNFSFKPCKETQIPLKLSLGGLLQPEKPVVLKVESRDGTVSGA

| Compound | Ki (CYP2C8) [nM] | inhibition of CYP2C8 (in words) (CYP2C8; HLM, remdesivir as compared to rosiglitazone) | IC50 (CYP2C8; remdesivir) [nM] | inhibition of CYP2D6 (in words) (CYP2D6 [1]) | IC50 (CYP2D6 [2]) [nM] | Ki (CYP2D6 [2]) [nM] | IC50 (CYP3A4) [nM] | Ki (CYP3A4) [nM] | inhibition of CYP3A4 (in words) (CYP3A4; HLM, as compared to ketoconazole) | IC50 (CYP2C8; positive control) [nM] |
| --- | --- | --- | --- | --- | --- | --- | --- | --- | --- | --- |
| CCC(CC)COC(=O)[C@H](C)N[P@](=O)(OC[C@H]1O[C@@](C#N)(c2ccc3c(N)ncnn23)[C@H](O)[C@@H]1O)Oc1ccccc1 [Remdesivir, remdesivir] | 134 | weak inhibition | 268 | weak inhibition | 543 | 271 | 483 | 241 | moderate/weak inhibition |  |
| CN(CCOc1ccc(CC2SC(=O)NC2=O)cc1)c1ccccn1 (centres unmarked) [Rosiglitazone, rosiglitazone] | 1600 |  |  |  |  |  |  |  |  | 3280 |
